Measured values reported in patent US20140121236A1, “Compositions and Methods for Treating Myotonic Dystrophy Type 1” (UNIVERSITY OF SOUTHERN CALIFORNIA, priority 2012, published 2014).

Columns and labels:
DM1 myoblasts [1] = assay: Viability of DM1 myoblasts by counting surviving cells; assay type: cell-based, human; settings: Table 1, 10 μM, 4 days, surviving cells vs vehicle control
DM1 myoblasts [2] = assay: Toxicity by shape and size of the nuclei of DM1 myoblasts; assay type: cell-based, human; settings: Table 1, 10 μM, 4 days
SHARP [3] = assay: SHARP immunofluorescence in DM1 myoblasts; assay type: cell-based, human; settings: RCN-001 treatment for 4 days (not shown)
Description: DM1 myoblasts were then treated with 10 μM of either RCN-001 or the vehicle (DMSO) for 4 days and then examined by FISH using a Cy3 (CAG)10 probe.
(§1) CUG-RNA foci were detected by performing FISH on untreated DM1 myoblasts and DM1 myoblasts following treatment. For FISH analysis, DM1 myoblasts were plated on a 24-well clear bottom polystyrene plate with circular glass coverslips followed by treatment. Prior to FISH analysis, cells were fixed using 4% paraformaldehyde in 1×PBS for 20 min at room temperature. FISH analysis was performed using a Cy3 conjugated (CAG)10 oligonucleotide probe (Integrated DNA Technologies, Inc.) as described by Taneja et al, 1995 and Dansithong et al, 2005. CUG-RNA foci were observed as a red signal using fluorescence microscopy. Immunofluorescence was performed as described by Dansithong et al, 2008. Endogenous SHARP was detected using SHARP polyclonal antibodies from Bethyl at a dilution of 1:1000. The secondary antibodies conjugated with FITC (Invitrogen) were used at a 1:2000 dilution. Chloride channel 1 (Clcn1 a.k.a. CIC-1) was detected using CIC-1 polyclonal antibodies from Santa Cruz. The secondary antibodies conjugated with Alexa Flour 488 (Invitrogen) were used at a 1:2000 dilution. FISH analysis in mouse muscle section was carried out as described in Mancodi et al, 2000 (9).

[4] = system: MBNL1 and MBNL2 RNA splicing in DM1 myoblasts; assay: Splicing assay (RT-PCR) for RNAs from DM1 myoblasts; assay type: cell-based, human
Description: A. Total RNA was isolated from normal (SKMC) myoblasts, untreated DM1 myoblasts and DM1 myoblasts treated with 50 μM RCN-001 or 50 μM Pentamidine for 17 hours and subjected to RT-PCR analysis using the indicated primers sets for MBNL1 and MBNL2 RNAs. GAPDH RNA was amplified in parallel as an internal control. The results of one of three experiments are shown. B. The relative levels of exon inclusion was measured by densitometry and tabulated as mean % exon inclusion +/− standard deviation.
Treatment of DM1 myoblasts with RCN-001 is also sufficient to rescue abnormal RNA splicing. Two RNAs were selected that show abnormal splicing in DM1 myoblasts: MBNL1 and MBNL2. DM1 myoblast were treated with 50 μM RCN-001 for 17 hours after which RNA was isolated and splice variants were analyzed as previously described (20-22).
Splicing assays for RNAs isolated from human myoblasts. DM1 patient myoblasts was treated with 50 μM of RCN-001 or Pentamidine for 17 h as described by Warf et al, 2009. Total RNA was isolated using the RNAeasy mini kit (Qiagen Inc., USA) following manufacture's protocol. cDNA was synthesized using 5 μg of total RNA using First-Strand cDNA synthesis kit (GE Healthcare). PCR amplification was carried out using 150 ng of cDNA for 35 cycles for each target RNA. The primers used for PCR amplification are as follows—
The relative band intensities were measured using densitometry analyses and the percent of exon inclusion was calculated as [exon inclusion/(exon inclusion+exon exclusion)]×100.

CUG foci in HSALR mice = assay: CUG foci (FISH) in muscle of treated HSALR mice; assay type: in vivo; settings: 40 mg/kg i.p. each day for 7 days
Description: Red: CUG foci, detected with a (CAG)10Cy3 probe Blue: DAPI stain of nuclei.
(§2) Furthermore, CUG foci, abnormal RNA splicing, myotonia and reduced Clcn1 protein levels are reversed in HSA^LR mice treated with RCN-001: Age and gender matched HSA^LR mice were treated with either vehicle or 40/mgs/kg of RCN-001 injected i.p. each day for 7 days. After treatment CUG foci were examined and RNA isolated from skeletal muscle was subjected to RT-PCR analysis to examine the efficacy of RCN-001 in correcting the splice defects of Clcn1, lbd3 and Serca-1 RNAs, which are abnormally spliced in DM1 (20).
CUG-RNA foci were detected by performing FISH on untreated DM1 myoblasts and DM1 myoblasts following treatment. For FISH analysis, DM1 myoblasts were plated on a 24-well clear bottom polystyrene plate with circular glass coverslips followed by treatment. Prior to FISH analysis, cells were fixed using 4% paraformaldehyde in 1×PBS for 20 min at room temperature. […] CUG-RNA foci were observed as a red signal using fluorescence microscopy. […] Endogenous SHARP was detected using SHARP polyclonal antibodies from Bethyl at a dilution of 1:1000. […] Chloride channel 1 (Clcn1 a.k.a. CIC-1) was detected using CIC-1 polyclonal antibodies from Santa Cruz. […]

[5] = system: Clcn1, lbd3 and Serca-1 RNA splicing in HSALR mice; assay: RT-PCR splicing analysis of skeletal muscle RNA of treated HSALR mice; assay type: in vivo; settings: 40 mg/kg i.p. each day for 7 days
Description: A. Total RNA was isolated from age and gender matched wild-type mice, HSA^LR mice and HSA^LR mice treated with either saline or 40 mgs/kg of RCN-001 injected i.p. once a day for 7 days. Subsequent to treatment RNA was isolated from skeletal muscles and subjected to RT-PCR analysis using the indicated primers sets for Clcn1, Lbd3 and Serca-1 RNAs. GAPDH RNA was amplified in parallel as an internal control. The results of two experiments are shown. B. Bar graph representation of rescue achieved is shown. C. The relative levels of exon inclusion was measured by densitometry and tabulated as mean % exon inclusion +/− standard deviation.
as §2
Treatment in HSALR mice. […]
The relative band intensities were quantified by densitometry analyses and the percent of exon inclusion was calculated as [exon inclusion/(exon inclusion+exon exclusion)]×100.

SHARP [6] = assay: Nuclear SHARP levels in treated HSALR mice; assay type: in vivo; settings: 40 mg/kg i.p. each day for 7 days (not shown)
Description: as §2
as §1, with “Immunofluorescence was performed as described by Dansithong et al, 2008.” left out, “The secondary antibodies conjugated with FITC (Invitrogen) were used at a 1:2000 dilution.” left out, “The secondary antibodies conjugated with Alexa Flour 488 (Invitrogen) were used at a 1:2000 dilution. FISH analysis in mouse muscle section was carried out as described in Mancodi et al, 2000 (9).” left out

normal and DM1 myoblasts = assay: Off-target splicing and RNA steady-state levels (semi-quantitative RT-PCR) in myoblasts; assay type: cell-based, human
Description: Semi-quantitative RT-PCR was done as previously described (7,17, 23). Abbreviations: U: Untreated; V: vehicle treated; 16: treated with RCN-001.
(§3) Results for wild-type and HSA^LR mice are not shown.

wild-type and HSALR mice = assay: Off-target splicing and RNA steady-state levels in mice; assay type: in vivo
Description: as §3

SMILES: CCCCCCc1cc2cc(-c3nnc(-c4cccc(OC)c4)o3)c(=O)oc2cc1O [RCN-001]
- Toxicity: Viable (DM1 myoblasts [1]): ++ (30-40% cell survival)
- Toxicity: Toxic (DM1 myoblasts [2]): ++++ (60% alterations in nuclei shape and size)
- SHARP mislocalization / nuclear SHARP levels in DM1 myoblast (SHARP [3]): significantly reversed SHARP mislocalization and re-established nuclear SHARP levels
- rescue of abnormal splicing of MBNL1 and MBNL2 ([4]; 50 μM, 17 hours, RT-PCR): significantly rescues abnormal splicing of MBNL1 and MBNL2
- rescue of aberrant splicing of MBNL1, MBNL2, and IR in DM1 myoblasts ([4]; FIG. 6B, semi-quantitative RT-PCR): rescues aberrant splicing
- load of the CUG foci (CUG foci in HSALR mice): reduced
- rescue of splice defects of Clcn1, lbd3 and Serca-1 RNAs [5]: achieved rescue of splice defects that was comparable to results obtained with AON
- nuclear SHARP levels (SHARP [6]): allowed nuclear SHARP levels to be re-established
- off target effects on steady-state levels of endogenous (CUG)6-25 repeat encoding RNAs (normal and DM1 myoblasts; normal and DM1 myoblasts (FIG. 6C)): does not show significant off target effects
- splice patterns of RNAs that are abnormally spliced in DM1 (normal and DM1 myoblasts; normal myoblasts (FIG. 6B)): does not alter splice patterns
- splice patterns of RNAs that are normally spliced in DM1 (normal and DM1 myoblasts; normal or DM1 myoblasts (FIG. 6A)): does not alter splice patterns
- off target effects on steady-state levels of endogenous (CUG)6-25 repeat encoding RNAs (wild-type and HSALR mice; wild-type and HSALR mice (not shown)): does not show significant off target effects
- splice patterns of RNAs that are abnormally spliced in DM1 (wild-type and HSALR mice; wild-type mice (not shown)): does not alter splice patterns
- splice patterns of RNAs that are normally spliced in DM1 (wild-type and HSALR mice; wild-type or HSALR mice (not shown)): does not alter splice patterns
